Data as given in paper PMC12608155, “Discovery of Potential Antileishmanial Compounds Through Phenotypic Screening of an Alkaloid Library” (Molecules, 2025).
Like-named read-outs stand apart in the source and are kept apart here.

Test system: L. donovani IRFP axenic amastigotes
Experiment: Primary single-concentration screening on axenic amastigotes, growth inhibition at 72 h
Type: cell-based, Leishmania donovani
Details: axenic amastigotes; for Growth Inhibition (%) at 72h, 1 µM_Exp1 / Growth Inhibition (%) at 72h, 1 µM_Exp2 / inhibition at 1 µM: 1 µM; for Growth Inhibition (%) at 72h, 10 µM_Exp1 / Growth Inhibition (%) at 72h, 10 µM_Exp2 / inhibition at 10 µM: 10 µM; for inhibition at 1 µM / inhibition at 10 µM: Leishmania donovani
[1] = experiment 1, 72 h, read-out: Growth Inhibition (%) at 72h, 1 µM_Exp1
[2] = experiment 2, 72 h, read-out: Growth Inhibition (%) at 72h, 1 µM_Exp2
[3] = experiment 1, 72 h, read-out: Growth Inhibition (%) at 72h, 10 µM_Exp1
[4] = experiment 2, 72 h, read-out: Growth Inhibition (%) at 72h, 10 µM_Exp2

| SMILES | Growth Inhibition (%) at 72h, 1 µM_Exp1 (experiment 1, 72 h) [%] | Growth Inhibition (%) at 72h, 1 µM_Exp2 (experiment 2, 72 h) [%] | Growth Inhibition (%) at 72h, 10 µM_Exp1 (experiment 1, 72 h) [%] | Growth Inhibition (%) at 72h, 10 µM_Exp2 (experiment 2, 72 h) [%] | inhibition at 1 µM [1] [%] | inhibition at 1 µM [2] [%] | inhibition at 10 µM [3] [%] | inhibition at 10 µM [4] [%] |
| --- | --- | --- | --- | --- | --- | --- | --- | --- |
| COc1cc2c(cc1OC)[C@H]1[C@@H](C)c3ccc(OC)c(OC)c3CN1CC2 [Corydaline] | -15.75 | 2.30 | 79.13 | 87.39 | – | – | – | – |
| COc1cc2c(cc1O)C1Cc3ccc(OC)c(O)c3C[N+]1(C)CC2.[Cl-] (stereo not drawn) [Cyclanoline (chloride)] | -48.98 | 13.86 | 77.56 | 17.25 | – | – | – | – |
| CC(=O)C1=C(O)[C@@H]2[C@H]3c4c[nH]c5cccc(c45)C[C@H]3C(C)(C)N2C1=O [Cyclopiazonic acid] | – | – | – | – | 20.8 | 19.9 | 100 | 100 |
| COc1cc2c(cc1OC)-c1c(C)c3ccc(OC)c(OC)c3c[n+]1CC2.[Cl-] [Dehydrocorydaline (chloride)] | 13.00 | 31.86 | 95.47 | 88.17 | – | – | – | – |
| COc1cc2c(cc1OC)-c1c(C)c3ccc(OC)c(OC)c3c[n+]1CC2.[OH-] [Dehydrocorydaline (hydroxyl)] | 10.19 | -0.13 | 92.43 | 77.86 | – | – | – | – |
| COc1cc2c(cc1OC)-c1c(C)c3ccc(OC)c(OC)c3c[n+]1CC2.O=[N+]([O-])[O-] [Dehydrocorydaline (nitrate)] | 27.42 | -14.19 | 82.98 | 66.56 | – | – | – | – |
| COc1ccc2cc3[n+](cc2c1OC)CCc1cc(O)c(O)cc1-3.[Cl-] [Demethyleneberberine (chloride)] | -4.24 | 8.25 | 43.2 | 71.18 | – | – | – | – |
| COc1cc(CNC(=O)CCCCCCC(C)C)ccc1O [Dihydrocapsaicin] | – | – | – | – | -4.08 | 35.3 | 92 | 71.1 |
| CCCCCCCCCCCCCc1cc(=O)c2ccccc2n1C [Dihydroevocarpine] | -21.58 | 19.18 | 97.61 | 83.00 | – | – | – | – |
| Cc1c2ccncc2c(C)c2c1[nH]c1ccccc12.Cl [Ellipticine (hydrochloride)] | 36.30 | -10.32 | 98.68 | 97.67 | – | – | – | – |
| Cl.Cl.O=C(C[C@H]1NCCC[C@@H]1O)Cn1cnc2ccccc2c1=O [Febrifugine (dihydrochloride)] | 74.39 | 25.76 | 97.63 | 97.12 | – | – | – | – |
| O=C(C[C@H]1NCCC[C@@H]1O)Cn1cnc2ccccc2c1=O [Febrifugine] | – | – | – | – | 15.4 | -25.3 | 99.8 | 98.2 |
| Br.O=C(CC1NCCCC1O)Cn1cnc2cc(Br)c(Cl)cc2c1=O (stereo not drawn) [Halofuginone (hydrobromide)] | 99.34 | 83.65 | 100.16 | 98.51 | – | – | – | – |
| O=C(CC1NCCCC1O)Cn1cnc2cc(Br)c(Cl)cc2c1=O (stereo not drawn) [Halofuginone] | – | – | – | – | 93.7 | 90.9 | 97.7 | 98.2 |
| COC(=O)C[C@](O)(CCC(C)(C)O)C(=O)O[C@@H]1C(OC)=C[C@]23CCCN2CCc2cc4c(cc2[C@H]13)OCO4 [Harringtonine] | – | – | – | – | -25.3 | 3.29 | 92.5 | 92.2 |
| COC(=O)C[C@](O)(CCCC(C)(C)O)C(=O)O[C@@H]1C(OC)=C[C@]23CCCN2CCc2cc4c(cc2[C@H]13)OCO4 [Homoharringtonine] | – | – | – | – | 4.68 | -119 | 89.9 | 91.5 |
| O=C(O)CNCC(=O)O [Iminodiacetic acid] | – | – | – | – | -16.6 | -73 | -16.9 | 79.9 |
| O=C(O)CCCc1c[nH]c2ccccc12 [Indole-3-butyric acid] | – | – | – | – | -6.27 | 14.8 | 70.2 | 84 |
